Experiment: xn = mol fraction of the nth substance listed
Settings: Liquid, Vibrating tube method

CC(C)OC(C)C [diisopropyl ether] + CCC(C)O
mass density [kg/m3]
Settings | x2 = 0 | x2 = 0.2036 | x2 = 0.3227 | x2 = 0.4464 | x2 = 0.4973 | x2 = 0.6595 | x2 = 0.8482
373.24 K, 20000 kPa | – | – | 693 | 701.7 | 705.7 | 719.1 | 736.5
373.24 K, 25000 kPa | 680.8 | 692.1 | 699.7 | 708.2 | 712 | 725.1 | 741.9
373.24 K, 30000 kPa | 687.6 | 698.6 | 706 | 714.3 | 718 | 730.6 | 747.1
373.24 K, 35000 kPa | 693.8 | 704.4 | 711.7 | 719.8 | 723.4 | 735.7 | 751.9
373.24 K, 40000 kPa | 699.6 | 710 | 717.1 | 725 | 728.5 | 740.7 | 756.3
373.24 K, 45000 kPa | 705 | 715.3 | 722.2 | 730 | 733.5 | 745.3 | 760.7
373.24 K, 50000 kPa | 710.1 | 720.1 | 726.9 | 734.6 | 738 | 749.6 | 764.7
373.24 K, 55000 kPa | 714.9 | 724.9 | 731.5 | 739 | 742.4 | 753.8 | 768.7
373.24 K, 60000 kPa | 719.5 | 729.2 | 735.8 | 743.2 | 746.5 | 757.8 | 772.4
373.24 K, 65000 kPa | 723.9 | 733.4 | 740 | 747.3 | 750.6 | 761.6 | 776
373.24 K, 70000 kPa | 728.1 | 737.4 | 743.9 | 751.1 | 754.3 | 765.2 | 779.5
373.24 K, 80000 kPa | 735.9 | 745.2 | 751.5 | 758.4 | 761.6 | 772.3 | 786.1
373.24 K, 90000 kPa | 743.2 | 752.3 | 758.4 | 765.2 | 768.4 | 778.8 | 792.3
373.24 K, 100000 kPa | 750 | 758.8 | 764.9 | 771.5 | 774.6 | 784.8 | 798.2
373.24 K, 110000 kPa | 756.3 | 765.1 | 771 | 777.6 | 780.6 | 790.6 | 803.6
373.24 K, 120000 kPa | 762.3 | 770.9 | 776.8 | 783.2 | 786.1 | 796 | 808.8
373.24 K, 130000 kPa | 768 | 776.5 | 782.3 | 788.7 | 791.5 | 801.3 | 813.9
373.24 K, 140000 kPa | 773.3 | 781.8 | 787.4 | 793.7 | 796.6 | 806.1 | 818.6
393.28 K, 1000 kPa | 609.5 | 623.6 | 633.2 | 644 | 648.8 | 665 | 686.4
393.28 K, 5000 kPa | 622.1 | 635 | 643.9 | 654 | 658.4 | 673.7 | 693.9
393.28 K, 10000 kPa | 635 | 647 | 655.3 | 664.6 | 668.8 | 683.2 | 702.2
393.28 K, 15000 kPa | 645.8 | 657.1 | 665 | 673.9 | 677.9 | 691.5 | 709.7
393.28 K, 20000 kPa | 655.2 | 666 | 673.6 | 682 | 685.8 | 698.9 | 716.3
393.28 K, 25000 kPa | 663.5 | 674 | 681.2 | 689.5 | 693.1 | 705.7 | 722.6
393.28 K, 30000 kPa | 671.1 | 681.1 | 688.2 | 696.2 | 699.8 | 712 | 728.4
393.28 K, 35000 kPa | 677.9 | 687.8 | 694.7 | 702.5 | 705.9 | 717.8 | 733.8
393.28 K, 40000 kPa | 684.3 | 694 | 700.7 | 708.3 | 711.6 | 723.2 | 738.8
393.28 K, 45000 kPa | 690.2 | 699.6 | 706.2 | 713.7 | 717 | 728.3 | 743.6
393.28 K, 50000 kPa | 695.8 | 705.1 | 711.5 | 718.8 | 722 | 733.1 | 748.1
393.28 K, 55000 kPa | 701.1 | 710.3 | 716.6 | 723.7 | 726.9 | 737.8 | 752.5
393.28 K, 60000 kPa | 705.9 | 714.9 | 721.1 | 728.2 | 731.3 | 742.1 | 756.5
393.28 K, 65000 kPa | 710.6 | 719.4 | 725.7 | 732.5 | 735.6 | 746.3 | 760.4
393.28 K, 70000 kPa | 715.2 | 723.9 | 729.9 | 736.8 | 739.9 | 750.3 | 764.3
393.28 K, 80000 kPa | 723.5 | 732 | 738 | 744.7 | 747.6 | 757.7 | 771.4
393.28 K, 90000 kPa | 731.3 | 739.7 | 745.5 | 752 | 754.9 | 764.8 | 778.1
393.28 K, 100000 kPa | 738.4 | 746.7 | 752.4 | 758.7 | 761.6 | 771.3 | 784.3
393.28 K, 110000 kPa | 745.3 | 753.3 | 758.9 | 765.2 | 768 | 777.5 | 790.3
393.28 K, 120000 kPa | 751.4 | 759.4 | 764.9 | 771.1 | 773.8 | 783.2 | 795.8
393.28 K, 130000 kPa | 757.4 | 765.3 | 770.8 | 776.8 | 779.6 | 788.8 | 801.1
393.28 K, 140000 kPa | 763.1 | 770.8 | 776.3 | 782.3 | 784.9 | 794.1 | 806.2

From the NIST ThermoML archive (doi:10.1016/j.jct.2016.10.009)
